Measured values reported in patent US9763957B2, “Autotaxin inhibitors” (Novartis AG, priority 2013, dated 2017).

target: Recombinant human ATX (Homo sapiens (Human), UniProt Q13822); experiment: ATX inhibition assay (choline release, Amplex Red fluorescence); format: biochemical; details: ATX 10 nM, LPC 18:1 10 μM, 37° C., 20 min pre-incubation; mean of n≧2
Procedure, shortened: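 Activity was taken from the slope of resorufin fluorescence (530/590 nm, read every 2 min for 40 min at 37 °C) produced by choline liberated from 10 μM oleoyl LPC.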

Row | SMILES | IC50
1 | COc1ccc(CN2CCN(C(=O)/C=C/c3ccc(Cl)cc3Cn3nnc(C)n3)CC2)nc1 [Example 140.1, (E)-3-(4-Chloro-2-((5-methyl-2H-tetrazol-2-yl)methyl)phenyl)-1-(4-((5-methoxypyridin-2-yl)methyl)piperazin-1-yl)prop-2-en-1-one] | 5.9 nM
2 | Cc1cc(CN2CCN(C(=O)/C=C/c3ccc(Cl)cc3Cn3nnc(C)n3)CC2)on1 [Example 140.2, (E)-3-(4-Chloro-2-((5-methyl-2H-tetrazol-2-yl)methyl)phenyl)-1-(4-((3-methylisoxazol-5-yl)methyl)piperazin-1-yl)prop-2-en-1-one] | 64 nM
3 | Cc1nnn(Cc2cc(Cl)ccc2/C=C/C(=O)N2CCN(Cc3coc(C)n3)CC2)n1 [Example 140.3, (E)-3-(4-Chloro-2-((5-methyl-2H-tetrazol-2-yl)methyl)phenyl)-1-(4-((2-methyloxazol-4-yl)methyl)piperazin-1-yl)prop-2-en-1-one] | 30 nM
4 | Cc1nnn(Cc2cc(Cl)ccc2/C=C/C(=O)N2CCN(Cc3nc4ccccc4n3C)CC2)n1 [Example 140.4, (E)-3-(4-Chloro-2-((5-methyl-2H-tetrazol-2-yl)methyl)phenyl)-1-(4-((1-methyl-1H-benzo[d]imidazol-2-yl)methyl)piperazin-1-yl)prop-2-en-1-one] | 43 nM
5 | Cc1nnn(Cc2cc(Cl)ccc2/C=C/C(=O)N2CCN(Cc3cc(-c4ccccc4)nn3C)CC2)n1 [Example 140.6, (E)-3-(4-Chloro-2-((5-methyl-2H-tetrazol-2-yl)methyl)phenyl)-1-(4-((1-methyl-3-phenyl-1H-pyrazol-5-yl)methyl)piperazin-1-yl)prop-2-en-1-one] | 42 nM
6 | Cc1nnn(Cc2cc(Cl)ccc2/C=C/C(=O)N2CCN(Cc3cnc(N4CCOCC4)nc3)CC2)n1 [Example 140.8, (E)-3-(4-Chloro-2-((5-methyl-2H-tetrazol-2-yl)methyl)phenyl)-1-(4-((2-morpholinopyrimidin-5-yl)methyl)piperazin-1-yl)prop-2-en-1-one] | 8.8 nM
7 | Cc1nnn(Cc2cc(Cl)ccc2/C=C/C(=O)N2CCN(Cc3cnn(C)c3)CC2)n1 [Example 140.9, (E)-3-(4-Chloro-2-((5-methyl-2H-tetrazol-2-yl)methyl)phenyl)-1-(4-((1-methyl-1H-pyrazol-4-yl)methyl)piperazin-1-yl)prop-2-en-1-one] | 34 nM
8 | Cc1nnn(Cc2cc(Cl)ccc2/C=C/C(=O)N2CCC(c3nnc(CC(F)(F)F)o3)CC2)n1 [Example 141, (E)-3-(4-Chloro-2-((5-methyl-2H-tetrazol-2-yl)methyl)phenyl)-1-(4-(5-(2,2,2-trifluoroethyl)-1,3,4-oxadiazol-2-yl)piperidin-1-yl)prop-2-en-1-one] | 11 nM
9 | Cc1nnn(Cc2cc(C(F)(F)F)ccc2/C=C/C(=O)N2CCOCC2C(F)(F)F)n1 (stereo not drawn) [Example 142, (E)-3-(2-((5-Methyl-2H-tetrazol-2-yl)methyl)-4-(trifluoromethyl)phenyl)-1-(3-(trifluoromethyl)morpholino)prop-2-en-1-one] | 12 nM
10 | C[C@@H]1CN(Cc2ccc(F)cc2)CCN1C(=O)/C=C/c1ccc(Cl)cc1Cc1nnn(C)n1 [Example 143, (R,E)-3-(4-Chloro-2-((2-methyl-2H-tetrazol-5-yl)methyl)phenyl)-1-(4-(4-fluorobenzyl)-2-methylpiperazin-1-yl)prop-2-en-1-one] | 31 nM
11 | Cc1nc(Cc2cc(Cl)ccc2/C=C/C(=O)N2CCN(Cc3ccc(F)cc3)C[C@H]2C)no1 [Example 144, (R,E)-3-(4-Chloro-2-((5-methyl-1,2,4-oxadiazol-3-yl)methyl)phenyl)-1-(4-(4-fluorobenzyl)-2-methylpiperazin-1-yl)prop-2-en-1-one] | 14 nM
12 | Cc1nnn(Cc2cc(Cl)ccc2/C=C/C(=O)N2CCC(CCNC(=O)c3c[nH]nn3)CC2)n1 [Example 145, (E)-N-(2-(1-(3-(4-Chloro-2-((5-methyl-2H-tetrazol-2-yl)methyl)phenyl)acryloyl)piperidin-4-yl)ethyl)-1H-1,2,3-triazole-4-carboxamide] | 13 nM
13 | Cc1nnn(Cc2cc(Cl)ccc2/C=C/C(=O)N2CCC(CCNC(=O)c3c[nH]nc3C(F)(F)F)CC2)n1 [Example 146, (E)-N-(2-(1-(3-(4-Chloro-2-((5-methyl-2H-tetrazol-2-yl)methyl)phenyl)acryloyl)piperidin-4-yl)ethyl)-3-(trifluoromethyl)-1H-pyrazole-4-carboxamide] | 17 nM
14 | Cc1nnn(Cc2cc(Cl)ccc2/C=C/C(=O)N2CCC(CNC(=O)CCc3cc(O)no3)CC2)n1 [Example 147, (E)-N-((1-(3-(4-Chloro-2-((5-methyl-2H-tetrazol-2-yl)methyl)phenyl)acryloyl)piperidin-4-yl)methyl)-3-(3-hydroxyisoxazol-5-yl)propanamide] | 13 nM
15 | Cc1nnn(Cc2cc(Cl)ccc2/C=C/C(=O)N2CCC(CCN(C)C(=O)c3c[nH]c(=O)o3)CC2)n1 [Example 148, (E)-N-(2-(1-(3-(4-Chloro-2-((5-methyl-2H-tetrazol-2-yl)methyl)phenyl)acryloyl)piperidin-4-yl)ethyl)-N-methyl-2-oxo-2,3-dihydrooxazole-5-carboxamide] | 8.9 nM
16 | Cc1nnn(Cc2cc(Cl)ccc2/C=C/C(=O)N2CCN(C3CCN(C(=O)c4c[nH]nn4)CC3)CC2)n1 [Example 149, (E)-1-(4-(1-(1H-1,2,3-Triazole-4-carbonyl)piperidin-4-yl)piperazin-1-yl)-3-(4-chloro-2-((5-methyl-2H-tetrazol-2-yl)methyl)phenyl)prop-2-en-1-one] | 4.9 nM
17 | CCOc1c(NCCC2CN(C(=O)/C=C/c3ccc(Cl)cc3Cn3nnc(C)n3)CCO2)c(=O)c1=O (stereo not drawn) [Example 150, (E)-3-((2-(4-(3-(4-Chloro-2-((5-methyl-2H-tetrazol-2-yl)methyl)phenyl)acryloyl)morpholin-2-yl)ethyl)amino)-4-ethoxycyclobut-3-ene-1,2-dione] | 6.9 nM
18 | Cc1nnn(Cc2cc(Cl)ccc2/C=C/C(=O)N2CCC(NC(=O)CCCc3c[nH]nn3)CC2)n1 [Example 151, (E)-N-(1-(3-(4-Chloro-2-((5-methyl-2H-tetrazol-2-yl)methyl)phenyl)acryloyl)piperidin-4-yl)-4-(1H-1,2,3-triazol-4-yl)butanamide] | 3.1 nM
19 | Cc1nnn(Cc2cc(C(F)(F)F)ccc2/C=C/C(=O)N2CCC(NC(=O)CCCc3c[nH]nn3)CC2)n1 [Example 152, (E)-N-(1-(3-(2-((5-Methyl-2H-tetrazol-2-yl)methyl)-4-(trifluoromethyl)phenyl)acryloyl)piperidin-4-yl)-4-(1H-1,2,3-triazol-4-yl)butanamide] | 3.9 nM
20 | Cc1nnn(Cc2cc(C(F)(F)F)ccc2CCC(=O)N2CCC(CCCCCc3c[nH]nn3)CC2)n1 [Example 153, 1-(4-(5-(1H-1,2,3-Triazol-4-yl)pentyl)piperidin-1-yl)-3-(2-((5-methyl-2H-tetrazol-2-yl)methyl)-4-(trifluoromethyl)phenyl)propan-1-one] | 2 nM
21 | Cc1nnn(Cc2cc(C(F)(F)F)ccc2OCC(=O)N2CCC(CCCCCc3c[nH]nn3)CC2)n1 [Example 154, 1-(4-(5-(1H-1,2,3-Triazol-4-yl)pentyl)piperidin-1-yl)-2-(2-((5-methyl-2H-tetrazol-2-yl)methyl)-4-(trifluoromethyl)phenoxy)ethanone] | 2.4 nM
22 | Cc1nnn(Cc2cc(C(F)(F)F)ccc2/C=C/C(=O)N2CCC(NCCCCc3c[nH]nn3)CC2)n1 [Example 155, (E)-1-(4-((4-(1H-1,2,3-Triazol-4-yl)butyl)amino)piperidin-1-yl)-3-(2-((5-methyl-2H-tetrazol-2-yl)methyl)-4-(trifluoromethyl)phenyl)prop-2-en-1-one] | 13 nM
23 | Cc1nnn(Cc2cc(C(F)(F)F)ccc2/C=C/C(=O)N2CCC(NC(=O)CCCCCc3cnn[nH]3)CC2)n1 [Example 156, (E)-N-(1-(3-(2-((5-Methyl-2H-tetrazol-2-yl)methyl)-4-(trifluoromethyl)phenyl)acryloyl)piperidin-4-yl)-6-(1H-1,2,3-triazol-5-yl)hexanamide] | 5.3 nM
24 | Cc1nnn(Cc2cc(C(F)(F)F)ccc2/C=C/C(=O)N2CCC(CCOCCc3cnn[nH]3)CC2)n1 [Example 157, (E)-1-(4-(2-(2-(1H-1,2,3-Triazol-5-yl)ethoxy)ethyl)piperidin-1-yl)-3-(2-((5-methyl-2H-tetrazol-2-yl)methyl)-4-(trifluoromethyl)phenyl)prop-2-en-1-one] | 9.2 nM
